Experimental data taken from PubChem BioAssay AID248 (DTP/NCI, 2004).
Several values for one entry are separate records, joined by “and”; a condition that tells them apart may be missing. Equal entries are not always repeated. Toxic doses and inconclusive results are not listed. Cut-off read from the data, not from the text of the source: active = T/C of 150% or more; inactive = T/C below 125%.

System: L1210 leukemia ip in BDF1 mice, survival T/C
Test: NCI In Vivo Anticancer Drug Screen. Data for tumor model L1210 Leukemia (intraperitoneal) in B6D2F1 (BDF1) mice
Details: endpoint: mean survival time, higher = longer survival
How it was run: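 Each compound was tested against a transplantable tumor grown in mice. The endpoint was survival, with treated animals benchmarked against vehicle controls as a simple ratio.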

[1] = dose: 100.0 mg/kg/injection, schedule: Q01DX009 (ip), vehicle: saline with Tween-80
[2] = dose: 100.0 mg/kg/injection, schedule: Q04DX003 (ip), vehicle: saline with Tween-80
[3] = dose: 200.0 mg/kg/injection, schedule: Q01DX009 (ip), vehicle: saline with Tween-80
[4] = dose: 400.0 mg/kg/injection, schedule: Q01DX009 (ip), vehicle: saline with Tween-80
[5] = dose: 100.0 mg/kg/injection, schedule: Q04DX003 (ip), vehicle: saline
[6] = dose: 200.0 mg/kg/injection, schedule: Q04DX003 (ip), vehicle: saline
[7] = dose: 400.0 mg/kg/injection, schedule: Q04DX003 (ip), vehicle: saline
[8] = dose: 100.0 mg/kg/injection, schedule: Q01DX001 (ip), vehicle: Klucel (hydroxypropylcellulose) (HPC)
[9] = dose: 200.0 mg/kg/injection, schedule: Q01DX001 (ip), vehicle: Klucel (hydroxypropylcellulose) (HPC)
[10] = dose: 100.0 mg/kg/injection, schedule: Q01DX009 (ip), vehicle: saline
[11] = dose: 200.0 mg/kg/injection, schedule: Q01DX009 (ip), vehicle: saline
[12] = dose: 400.0 mg/kg/injection, schedule: Q01DX009 (ip), vehicle: saline
[13] = dose: 100.0 mg/kg/injection, schedule: Q04DX002 (ip), vehicle: saline with Tween-80
[14] = dose: 200.0 mg/kg/injection, schedule: Q04DX002 (ip), vehicle: saline with Tween-80
[15] = dose: 400.0 mg/kg/injection, schedule: Q04DX002 (ip), vehicle: saline with Tween-80

Measured: T/C

COc1ccc(OC)c(CCC(O)CCc2cc(OC)ccc2OC)c1
inactive: [1] 99 % of control | [2] 96 % of control | [3] 90 % of control | dose: 200.0 mg/kg/injection, schedule: Q04DX003 (ip), vehicle: saline with Tween-80 98 % of control | [4] 94 % of control | dose: 400.0 mg/kg/injection, schedule: Q04DX003 (ip), vehicle: saline with Tween-80 94 % of control

O=P(O)(O)c1ccc(N=Nc2ccc(P(=O)(O)O)cc2)cc1
inactive: [5] 94 % of control | [6] 107 % of control | [7] 97 % of control

COC(=N)Cc1ccc(F)cc1
inactive: dose: 75.0 mg/kg/injection, schedule: Q01DX009 (ip), vehicle: saline with Tween-80 111 % of control | dose: 150.0 mg/kg/injection, schedule: Q01DX009 (ip), vehicle: saline with Tween-80 112 % of control | dose: 300.0 mg/kg/injection, schedule: Q01DX009 (ip), vehicle: saline with Tween-80 112 % of control

CC(=NCc1ccccc1)C(C)(O)c1ccccc1 (stereo not given)
inactive: dose: 100.0 mg/kg/injection, schedule: Q01DX009 (ip), vehicle: other 105 % of control | dose: 100.0 mg/kg/injection, schedule: Q04DX003 (ip), vehicle: other 97 % of control | [5] 97 % of control | dose: 200.0 mg/kg/injection, schedule: Q01DX009 (ip), vehicle: other 107 % of control | dose: 200.0 mg/kg/injection, schedule: Q04DX003 (ip), vehicle: other 90 % of control | [6] 103 % of control | dose: 400.0 mg/kg/injection, schedule: Q01DX009 (ip), vehicle: other 100 % of control | dose: 400.0 mg/kg/injection, schedule: Q04DX003 (ip), vehicle: other 95 % of control | [7] 95 % of control

O=C(CN1C(=O)c2ccccc2C1=O)NCC(=O)Nc1ccccc1
inactive: dose: 50.0 mg/kg/injection, schedule: Q01DX001 (ip), vehicle: saline 93 % of control | dose: 100.0 mg/kg/injection, schedule: Q01DX001 (ip), vehicle: saline 98 % of control | dose: 200.0 mg/kg/injection, schedule: Q01DX001 (ip), vehicle: saline 104 % of control | dose: 400.0 mg/kg/injection, schedule: Q01DX001 (ip), vehicle: saline 93 % of control

CCOC(=O)CNC(=O)Nc1cccc(F)c1
inactive: [1] 103 % of control | [3] 102 % of control | [4] 96 % of control

Nc1c(OCCc2ccccc2)cccc1C(=O)O
inactive: [8] 97 % of control | [9] 96 % of control | dose: 400.0 mg/kg/injection, schedule: Q01DX001 (ip), vehicle: Klucel (hydroxypropylcellulose) (HPC) 93 % of control

O=P(CCl)(CCCl)CCCl
inactive: dose: 50.0 mg/kg/injection, schedule: Q04DX003 (ip), vehicle: saline 101 % of control | [5] 103 % of control | [6] 103 % of control | [7] 89 % of control

Cc1cc(Cl)c(N)[c]([Hg][I])c1F
inactive: dose: 12.0 mg/kg/injection, schedule: Q01DX001 (ip), vehicle: Klucel (hydroxypropylcellulose) (HPC) 90 % of control | dose: 25.0 mg/kg/injection, schedule: Q01DX001 (ip), vehicle: Klucel (hydroxypropylcellulose) (HPC) 86 % of control | dose: 50.0 mg/kg/injection, schedule: Q01DX001 (ip), vehicle: Klucel (hydroxypropylcellulose) (HPC) 92 % of control

CC(C)CCCC(C)C1CCC2C3CCC4CC(=O)CCC4(C)C3CCC12C (stereo not given)
inactive: dose: 12.5 mg/kg/injection, schedule: Q01DX009 (ip), vehicle: Klucel (hydroxypropylcellulose) (HPC) 104 % of control | dose: 25.0 mg/kg/injection, schedule: Q01DX009 (ip), vehicle: Klucel (hydroxypropylcellulose) (HPC) 107 % of control and 90 % of control | dose: 100.0 mg/kg/injection, schedule: Q01DX009 (ip), vehicle: Klucel (hydroxypropylcellulose) (HPC) 90 % of control | dose: 100.0 mg/kg/injection, schedule: Q04DX002 (ip), vehicle: Klucel (hydroxypropylcellulose) (HPC) 87 % of control | dose: 200.0 mg/kg/injection, schedule: Q04DX002 (ip), vehicle: Klucel (hydroxypropylcellulose) (HPC) 93 % of control | dose: 400.0 mg/kg/injection, schedule: Q04DX002 (ip), vehicle: Klucel (hydroxypropylcellulose) (HPC) 107 % of control

OC1c2ccccc2C(O)C2C3C=CC(CC3)C12 (stereo not given)
inactive: dose: 50.0 mg/kg/injection, schedule: Q01DX001 (ip), vehicle: carboxymethylcellulose (CMC) 93 % of control | dose: 100.0 mg/kg/injection, schedule: Q01DX001 (ip), vehicle: carboxymethylcellulose (CMC) 98 % of control | dose: 200.0 mg/kg/injection, schedule: Q01DX001 (ip), vehicle: carboxymethylcellulose (CMC) 98 % of control | dose: 400.0 mg/kg/injection, schedule: Q01DX001 (ip), vehicle: carboxymethylcellulose (CMC) 98 % of control

O=C1CCSC(=S)N1c1cccc(C(F)(F)F)c1
inactive: dose: 25.0 mg/kg/injection, schedule: Q04DX003 (ip), vehicle: saline with Tween-80 101 % of control | dose: 50.0 mg/kg/injection, schedule: Q04DX003 (ip), vehicle: saline with Tween-80 104 % of control | [2] 104 % of control

CCOC(=O)C(C)(C)CSC(C)(C)C(=O)OCC
inactive: [5] 110 % of control | [6] 101 % of control | [7] 110 % of control

O=P(C1CCCC1)(C1CCCC1)C1CCCC1
inactive: dose: 100.0 mg/kg/injection, schedule: Q01DX001 (ip), vehicle: saline with Tween-80 100 % of control | dose: 200.0 mg/kg/injection, schedule: Q01DX001 (ip), vehicle: saline with Tween-80 94 % of control | dose: 400.0 mg/kg/injection, schedule: Q01DX001 (ip), vehicle: saline with Tween-80 92 % of control

NCCN=C(N)C(N)=NCCN
inactive: dose: 100.0 mg/kg/injection, schedule: Q04DX002 (ip), vehicle: saline 100 % of control | dose: 200.0 mg/kg/injection, schedule: Q04DX002 (ip), vehicle: saline 103 % of control | dose: 400.0 mg/kg/injection, schedule: Q04DX002 (ip), vehicle: saline 110 % of control

COc1ccc(OC)c(NC(=O)N(CCO)C2CCCCC2)c1
inactive: dose: 100.0 mg/kg/injection, schedule: Q04DX003 (ip), vehicle: Klucel (hydroxypropylcellulose) (HPC) 90 % of control | dose: 400.0 mg/kg/injection, schedule: Q04DX003 (ip), vehicle: Klucel (hydroxypropylcellulose) (HPC) 97 % of control

CCOCCS(=O)(=O)CCS(=O)(=O)CCOCC
inactive: [10] 95 % of control | [11] 103 % of control | [12] 108 % of control

COC1CC2c3ccccc3C1C(C)=[N+]2C (stereo not given)
inactive: dose: 50.0 mg/kg/injection, schedule: Q01DX009 (ip), vehicle: saline 97 % of control | [10] 101 % of control | [5] 102 % of control | [11] 100 % of control | [6] 97 % of control | [7] 102 % of control

Cc1ccc(S(=O)(=O)N(CCC(=O)O)c2ccccc2)cc1
inactive: [1] 90 % of control | [3] 97 % of control

O=Nc1ccc(O)c(Cl)c1
inactive: [8] 95 % of control | [9] 98 % of control

CCOC(=O)CN(C)C#N
inactive: [10] 101 % of control | [5] 92 % of control | [11] 101 % of control | [6] 92 % of control | [12] 92 % of control | [7] 91 % of control

CNC(=O)O[C@H]1CC[C@@]2(C)C(=CC[C@H]3[C@@H]4CC[C@H]([C@H](C)CCCC(C)C)[C@@]4(C)CC[C@@H]32)C1
inactive: dose: 100.0 mg/kg/injection, schedule: Q01DX001 (sc), vehicle: steriod suspending solution 87 % of control | dose: 200.0 mg/kg/injection, schedule: Q01DX001 (sc), vehicle: steriod suspending solution 97 % of control | dose: 400.0 mg/kg/injection, schedule: Q01DX001 (sc), vehicle: steriod suspending solution 92 % of control

CCCCCCC(CCC)CCCCCC
inactive: [13] 98 % of control | [14] 104 % of control | [15] 98 % of control

CCCCOP(=O)(Nc1ccc([N+](=O)[O-])cc1)OCCCC
inactive: [13] 101 % of control | [14] 94 % of control | [15] 90 % of control
